Test results reported in patent US20210379035A1, “Methods Of Treating Fabry Patients Having Renal Impairment” (Amicus Therapeutics, Inc., priority 2017, published 2021).

Test system: Fabry patients
Experiment: Long-term analysis of 12 patients that completed multiple studies: eGFR
Assay type: in vivo, human
Details: 11 patients who received migalastat HCl 150 mg QOD for ≥17 months (mean exposure, 4-5 years)
From the text: In addition to the studies described above, other patients also received migalastat therapy in other studies such as dose-finding studies and/or long-term extension studies. […] 12 patients that completed multiple studies were further analyzed. Linear regression was used to calculate the annualized rate of change in […] from baseline.

Cl.OC[C@H]1NC[C@H](O)[C@@H](O)[C@H]1O [migalastat HCl, migalastat hydrochloride]
annualized mean change in eGFRCKD-EPI: 0.24 mL/min/1.72 m^2
